Source: US10300000B2, “Inhibition of melanogenesis by chemically modified curcumins” (The Research Foundation for The State University of New York, priority 2016, dated 2019)
Read-outs that look alike come from different tables or passages of the source.

Legend:
[1] = test system: B16F10 cells; assay: Melanin content quantification in B16F10 cells; assay type: cell-based, mouse; settings: for inhibition of melanin content / effect on melanin content (words): 48 hours; for effect on melanin content (words): B16F10, tested concentrations; for IC50: B16F10 cells exposed for 48 hours, non-linear curve fitting, read-out: IC50-Melanin Inhibition
Method: B16F10 cells were seeded at 1×10^5 cells/well in 1.5 ml media in 12-well plates and incubated for 24 hours. […] For quantification of melanin content, cells were trypsinized and cell pellets were washed in PBS. Cell pellets were also visually observed for lightening of the intracellular pigment. After aspiration, 250 μL of 1N NaOH was added and heated to 70° C. to solubilize melanin. The aliquots were then transferred to a 96-well plate and absorbance was read at 475 nm using a microplate reader. A portion of the lysate was used to evaluate total protein content using BCA assay. The melanin absorbance was normalized by total protein content and expressed as % of control.

[2] = target: T1, intracellular tyrosinase in B16F10 cells (Mus musculus, UniProt P11344); assay: Recovery study of intracellular tyrosinase activity in B16F10 cells; assay type: cell-based; settings: for tyrosinase activity after removal of compound: 2 day recovery post 2 day exposure
T1 construct: endogenous in cells; host or cells: B16F10
T1 sequence (P11344 19-533): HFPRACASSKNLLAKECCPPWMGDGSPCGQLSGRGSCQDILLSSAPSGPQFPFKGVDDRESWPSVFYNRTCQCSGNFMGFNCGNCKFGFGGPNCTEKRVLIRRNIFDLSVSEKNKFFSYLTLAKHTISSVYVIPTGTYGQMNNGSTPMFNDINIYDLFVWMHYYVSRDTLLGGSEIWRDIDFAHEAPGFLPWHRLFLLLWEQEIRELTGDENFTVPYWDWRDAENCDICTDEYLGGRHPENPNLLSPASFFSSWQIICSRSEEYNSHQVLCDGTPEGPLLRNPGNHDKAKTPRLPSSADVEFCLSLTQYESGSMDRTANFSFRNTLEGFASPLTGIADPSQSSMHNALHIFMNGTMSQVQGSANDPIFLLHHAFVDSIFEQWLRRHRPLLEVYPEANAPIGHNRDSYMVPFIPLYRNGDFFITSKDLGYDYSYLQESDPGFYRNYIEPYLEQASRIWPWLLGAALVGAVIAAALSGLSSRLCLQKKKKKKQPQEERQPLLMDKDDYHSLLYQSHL
Method: In order to establish reversibility of tyrosinase inhibition by the CMCs, we conducted a “recovery” study over a 2 day interval using the highest concentrations of the compounds which produced maximum tyrosinase activity inhibition without toxicity. B16F10 were plated in six-well plates at 3.5×10^4 cells/well and compounds were added (PC-10 μM, CMC2.14-10 μM, CMC2.5-20 μM, CMC2.23-25 μM and CMC2.24 at 20 μM) next day. Tyrosinase activity in one set of cultures after detachment and lysis as described herein was estimated after 2 day exposure while another set of cultures were continued with fresh media without the compounds to study reversibility of tyrosinase activity inhibition for another 2 days. Results are expressed as % tyrosinase activity for both 2 day exposure and 2 day recovery post 2 day exposure.

[3] = test system: HaCaT cells; settings: HaCaT, 48 hours
Method: Briefly, 2×10^4 cells/well were seeded in 96-well plates and after 24 hours, the compounds at concentrations of 5-25 μM were added to the wells and incubated for 48 hours. Absorbance was read after 1 hour of incubation of plates and results were expressed as % of control.

[4] = test system: HEM-DP cells; assay: Melanin content quantification in human epidermal melanocytes; assay type: cell-based; settings: 48 hours
Method: Primary cultures of human epidermal melanocytes from a darkly pigmented donor were seeded at 2.2×10^5 cells/well in 1.5 ml media in 12-well plates and incubated for 48 hours. The test compounds were added to cultures and controls were treated with 0.16% DMSO, and further incubated for another 48 hours. For evaluation of melanin content, cells in the wells were trypsinized and cell pellets were washed in PBS. After aspiration, 250 μL of 1N NaOH was added and heated to 70° C. to solubilize melanin. The aliquots were then transferred to a 96-well plate and absorbance was read at 475 nm using microplate reader. A portion of the lysate was used to evaluate total protein content using […] bincinchonic acid (BCA) assay (Pierce BCA kit, Thermo Scientific). The absorbance of melanin was normalized to the total protein content for each lysate and reported as % of control.

[5] = target: T2, cellular tyrosinase in HEM-DP cells (Homo sapiens, UniProt P14679); assay: Intracellular tyrosinase activity in human melanocytes; assay type: cell-based; settings: 48 hours
T2 construct: endogenous in cells; host or cells: HEM-DP (primary human epidermal melanocytes, darkly pigmented donor)
T2 sequence (P14679 19-529): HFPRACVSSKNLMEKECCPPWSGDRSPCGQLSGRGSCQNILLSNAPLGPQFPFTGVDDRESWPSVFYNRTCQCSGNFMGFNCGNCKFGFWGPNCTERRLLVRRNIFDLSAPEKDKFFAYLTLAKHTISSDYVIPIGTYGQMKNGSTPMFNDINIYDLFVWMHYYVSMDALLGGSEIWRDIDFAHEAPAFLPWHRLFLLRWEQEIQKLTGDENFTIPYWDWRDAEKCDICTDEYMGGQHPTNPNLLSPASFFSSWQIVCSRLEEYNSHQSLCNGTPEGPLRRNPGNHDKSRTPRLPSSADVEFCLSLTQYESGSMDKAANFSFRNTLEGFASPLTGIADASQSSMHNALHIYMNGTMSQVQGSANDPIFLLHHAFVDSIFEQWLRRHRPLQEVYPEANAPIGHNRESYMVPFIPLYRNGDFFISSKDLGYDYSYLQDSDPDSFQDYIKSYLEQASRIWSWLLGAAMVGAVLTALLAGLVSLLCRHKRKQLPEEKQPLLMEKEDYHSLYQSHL
Method: We quantitated the cellular tyrosinase activity of human melanocytes based on established methods. Briefly, human epidermal melanocytes from a darkly pigmented donor (HEM-DP) were cultured in 12-well tissue culture plates at density of 1.5×10^5 cells/well. After 48 hrs. media was changed and test compounds were added, and further incubated for 48 hrs. At the end of treatments, cells were trypsinized and cell pellets were washed in PBS and lysed with lysis buffer under ice for 30 minutes and then centrifuged to remove cellular debris. 50 μl of lysates were then aliquoted in 96-well microplate and 150 μl of freshly prepared 3 mM L-DOPA was added. The absorbance was then measured kinetically at 475 nm every 30 seconds for 30 minutes at 30° C. using microplate reader (Versamax®). The % inhibition of tyrosinase activity was calculated by determining melanin formation rates from the linear range of the slopes of melanin formation over time for the different samples and calculating % inhibition from the measured velocities of melanin formation.

[6] = target: T3, intracellular tyrosinase in HEM-DP cells (Homo sapiens, UniProt P14679); assay: Recovery study of intracellular tyrosinase activity in human melanocytes; assay type: cell-based
T3 construct: endogenous in cells; host or cells: HEM-DP (primary human epidermal melanocytes, darkly pigmented donor)
T3 sequence (P14679 19-529): T2 sequence (P14679 19-529)
Method: In order to study if the melanocytes could recover from inhibited tyrosinase activity after exposure to the CMCs, we employed a model for reversibility of inhibition of tyrosinase activity inhibition. This can establish safety of the compounds since irreversible inhibition of tyrosinase activity could damage melanocyte synthetic machinery with potential loss of the protective function of melanin. […] Briefly, HEM-DP were plated in 6-well plates at 2.3×10^5 cells/well and grown for 3 days and then CMCs were added. Tyrosinase activity was estimated after 2 day exposure in cellular lysates and another set of cultures were continued with fresh media without the compounds for further 5 days (with media change at day 3), in order to study reversibility of melanin inhibition.

Row | SMILES | inhibition of melanin content ([1]; B16F10, 10 μM) [%] | effect on melanin content (words) [1] | IC50 [1] [µM] | loss of tyrosinase activity ([2]; B16F10, 10 μM, 2 day exposure) | tyrosinase activity after removal of compound ([2]; B16F10, 10 μM) [%] | stimulation of cell proliferation ([3]; 5 μM) [%] | stimulation of cell proliferation ([3]; 10 μM) [%] | inhibition of melanin content ([1]; B16F10, 25 μM) [%] | effect on melanin content (words) ([1]; listed as 2.23) | reduction in melanin content ([4]; 10 μM) [%] | reduction in melanin content ([4]; 20 μM) [%] | inhibition of cellular tyrosinase activity ([5]; 5 μM) [%] | inhibition of cellular tyrosinase activity ([5]; 10 μM) [%] | inhibition of cellular tyrosinase activity ([5]; 20 μM) [%] | recovery of tyrosinase activity ([6]; 5 days after removal, CMC2.24 10 μM, CMC2.23 and CMC2.5 20 μM) | stimulation of cell proliferation ([3]; 20 μM) [%] | tyrosinase activity after removal of compound ([2]; B16F10, 20 μM) | reduction of tyrosinase activity at the exposure time ([6]; 20 μM, 2 day exposure) [%]
1 | COC(=O)C(C(=O)/C=C/c1ccc(O)cc1)C(=O)/C=C/c1ccc(O)cc1 [CMC2.14] | 32.21 | moderate inhibition | 15.1 | up to 75% | 100 | 23.2 | 15.5 |  |  |  |  |  |  |  |  |  |  | 
2 | COc1cc(/C=C/C(=O)C(C(=O)/C=C/c2ccc(O)c(OC)c2)C(=O)Nc2ccccc2)ccc1O [CMC2.23] |  | most potent inhibition | 24.1 |  |  |  | 11.3 | 46.4 | moderate inhibition | 20 | 20 | 25 | 35 | 49 | partially recovered | 22.9 |  | 
3 | COC(=O)C(C(=O)C=Cc1ccc(O)c(OC)c1)C(=O)C=Cc1ccc(O)c(OC)c1 (centres unmarked) [CMC2.5, 4-methoxycarbonyl curcumin] |  |  |  |  |  |  |  |  |  |  | ~20 |  |  | 16 |  |  | completely recovered | 12
